# Test results published in US8906925B2, “Pyrido[4,3-B]indoles containing rigid moieties” (Medivation Technologies, Inc., priority 2008, dated 2014).
# Values joined by “and” are separate entries in the source; they are usually repeats but may differ in a detail not shown here. Identical values can stand only once.
# Experiments:
# [1] = target: T1, human recombinant adrenergic α1D receptor (Homo sapiens, UniProt P25100); assay: Adrenergic α1D radioligand binding ([3H]Prozosin); settings: percent inhibition of specific binding; compound at 1 μM; read-out: Inhibition of ligand binding, Adrenergic α1D
# T1 construct: expressed in transfected cells; host or cells: human embryonic kidney (HEK-293) cells
# T1 sequence (P25100 1-572): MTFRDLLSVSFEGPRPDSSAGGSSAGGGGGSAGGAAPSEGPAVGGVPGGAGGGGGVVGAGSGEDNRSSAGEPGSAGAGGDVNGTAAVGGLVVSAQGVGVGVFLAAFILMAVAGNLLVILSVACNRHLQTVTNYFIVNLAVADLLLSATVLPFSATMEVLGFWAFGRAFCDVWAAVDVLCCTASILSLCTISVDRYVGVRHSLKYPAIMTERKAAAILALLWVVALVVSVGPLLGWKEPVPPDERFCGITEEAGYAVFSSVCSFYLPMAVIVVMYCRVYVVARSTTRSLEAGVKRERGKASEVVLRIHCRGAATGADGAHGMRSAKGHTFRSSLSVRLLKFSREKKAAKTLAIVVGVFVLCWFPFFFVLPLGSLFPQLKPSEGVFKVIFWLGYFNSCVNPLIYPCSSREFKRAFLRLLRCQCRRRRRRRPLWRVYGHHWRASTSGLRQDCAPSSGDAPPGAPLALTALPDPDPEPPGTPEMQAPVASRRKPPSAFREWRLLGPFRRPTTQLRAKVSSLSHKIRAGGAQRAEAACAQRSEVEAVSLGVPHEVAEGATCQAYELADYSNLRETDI
# Experimental: Compounds of invention were incubated with 0.6 nM [^3H]Prozosin for 60 min. at 25° C. Non-specific binding was estimated in the presence of 10 μM phentolamine. Receptor proteins were filtered and washed, the filters were then counted to determine [^3H]Prozosin specifically bound. Compounds were screened at 1 μM or lower, using 1% DMSO as vehicle. Biochemical assay results are presented as the percent inhibition of specific binding in Table 9.
# [2] = target: T2, human recombinant serotonin (5-Hydroxytryptamine) 5-HT2A receptor (Homo sapiens, UniProt P28223); assay: Serotonin 5-HT2A radioligand binding ([3H]Ketanserin); settings: for inhibition at 0.1 µM: read-out: Inhibition of ligand binding, Serotonin 5-HT2A (percent inhibition of specific binding), compound at 0.1 μM; for inhibition at 1 µM: read-out: Inhibition of ligand binding, Serotonin 5-HT2A (percent inhibition of specific binding), compound at 1 μM
# T2 construct: expressed in transfected cells; host or cells: Chinese hamster ovary (CHO-K1) cells
# Experimental: Compounds of the invention were incubated with 0.5 nM [^3H]Ketanserin for 60 min. at 25° C. Non-specific binding was estimated in the presence of 1 μM Mianserin. Receptor proteins were filtered and washed, the filters were then counted to determine [^3H]Ketanserin specifically bound.
# [3] = target: T3, human recombinant adrenergic α2A receptor (Homo sapiens, UniProt P08913); assay: Adrenergic α2A radioligand binding ([3H]MK-912); settings: percent inhibition of specific binding; compound at 1 μM; read-out: Inhibition of ligand binding, Adrenergic α2A
# T3 construct: expressed in transfected cells; host or cells: insect Sf9 cells
# T3 sequence (P08913 1-465): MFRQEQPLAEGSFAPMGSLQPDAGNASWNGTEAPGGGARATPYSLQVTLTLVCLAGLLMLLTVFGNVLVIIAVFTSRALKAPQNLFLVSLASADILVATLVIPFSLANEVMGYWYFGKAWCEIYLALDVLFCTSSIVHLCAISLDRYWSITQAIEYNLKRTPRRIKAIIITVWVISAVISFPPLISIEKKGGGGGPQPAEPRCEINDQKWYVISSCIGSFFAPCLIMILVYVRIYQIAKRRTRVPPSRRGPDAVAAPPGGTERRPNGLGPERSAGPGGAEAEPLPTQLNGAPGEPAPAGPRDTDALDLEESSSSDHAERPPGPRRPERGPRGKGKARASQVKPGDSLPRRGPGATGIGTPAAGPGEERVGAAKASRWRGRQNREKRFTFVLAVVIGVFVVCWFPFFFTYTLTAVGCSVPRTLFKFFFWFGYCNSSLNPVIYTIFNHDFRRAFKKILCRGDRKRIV
# Procedure, shortened: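 Sf9-expressed human receptor in 50 mM Tris-HCl pH 7.4, 12.5 mM MgCl2, 2 mM EDTA; compounds at 1 μM or lower (1% DMSO) incubated with 1 nM [3H]MK-912 for 60 min at 25° C. Non-specific binding defined with 10 μM WB-4101; filtered bound radioactivity counted, reported as percent inhibition of specific binding.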
# [4] = target: T4, human recombinant serotonin (5-Hydroxytryptamine) 5-HT6 receptor (Homo sapiens, UniProt P50406); assay: Serotonin 5-HT6 radioligand binding ([3H]LSD); settings: for inhibition at 0.1 µM: compound at 0.1 μM; for inhibition at 0.1 µM / inhibition at 1 µM: read-out: Inhibition of ligand binding, Serotonin 5-HT6 (percent inhibition of specific binding)
# T4 construct: expressed in transfected cells; host or cells: human HeLa cells
# Experimental: Compounds of the invention were incubated with 1.5 nM [3H]Lysergic acid diethylamide (LSD) for 120 min. at 37° C. […] Receptor proteins were filtered and washed, the filters were then counted to determine [3H]LSD specifically bound. Compounds were screened at 1 μM or lower, using 1% DMSO as vehicle. Biochemical assay results are presented as the percent inhibition of specific binding in Table 10.
# [5] = target: T5, human recombinant histamine H2 receptor (Homo sapiens, UniProt P25021); assay: Histamine H2 radioligand binding ([125I]Aminopotentidine); settings: read-out: Histamine Binding (1 μM) H2, percent inhibition of specific binding, 1 μM
# T5 construct: expressed in transfected cells; host or cells: Chinese hamster ovary (CHO) K1 cells
# Procedure, shortened: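 CHO-K1 cells expressing human recombinant H2 receptor, 50 mM phosphate buffer pH 7.4; compounds incubated with 0.1 nM [125I]aminopotentidine for 120 min at 25 °C. Nonspecific binding defined with 3 μM tiotidine; specifically bound radioligand counted after filtration and washing.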
# [6] = target: human recombinant serotonin (5-Hydroxytryptamine) 5-HT7 receptor (Homo sapiens, UniProt P34969); assay: Serotonin 5-HT7 radioligand binding ([3H]LSD); settings: for inhibition at 1 µM: compound at 1 μM; for inhibition at 1 µM / inhibition at 0.1 µM: read-out: Inhibition of ligand binding, Serotonin 5-HT7 (percent inhibition of specific binding)
# From the text: Receptor proteins were filtered and washed, the filters were then counted to determine [^3H]LSD specifically bound.
# T5 sequence (P25021 whole entry): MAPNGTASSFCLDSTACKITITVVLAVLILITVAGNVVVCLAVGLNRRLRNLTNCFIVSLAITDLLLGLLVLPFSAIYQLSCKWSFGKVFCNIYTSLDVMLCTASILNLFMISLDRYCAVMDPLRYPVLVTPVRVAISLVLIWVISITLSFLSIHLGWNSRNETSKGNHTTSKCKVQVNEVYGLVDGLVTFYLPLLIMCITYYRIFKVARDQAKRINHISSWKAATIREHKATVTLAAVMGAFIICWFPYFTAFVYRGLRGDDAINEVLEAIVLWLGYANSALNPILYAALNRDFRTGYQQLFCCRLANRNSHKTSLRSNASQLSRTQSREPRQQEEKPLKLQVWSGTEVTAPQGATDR
# T4 sequence (P50406 whole entry): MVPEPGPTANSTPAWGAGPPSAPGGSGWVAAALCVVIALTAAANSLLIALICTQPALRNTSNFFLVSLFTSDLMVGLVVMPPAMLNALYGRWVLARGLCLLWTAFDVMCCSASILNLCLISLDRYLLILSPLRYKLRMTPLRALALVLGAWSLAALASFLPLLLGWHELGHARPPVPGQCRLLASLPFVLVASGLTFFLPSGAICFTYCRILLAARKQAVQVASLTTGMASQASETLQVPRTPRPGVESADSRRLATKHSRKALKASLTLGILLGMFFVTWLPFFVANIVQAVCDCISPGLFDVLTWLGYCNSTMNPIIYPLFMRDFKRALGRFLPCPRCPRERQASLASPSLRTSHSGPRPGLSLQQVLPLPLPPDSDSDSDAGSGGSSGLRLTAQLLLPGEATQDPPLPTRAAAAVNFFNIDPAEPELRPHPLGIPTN
# T2 sequence (P28223 whole entry): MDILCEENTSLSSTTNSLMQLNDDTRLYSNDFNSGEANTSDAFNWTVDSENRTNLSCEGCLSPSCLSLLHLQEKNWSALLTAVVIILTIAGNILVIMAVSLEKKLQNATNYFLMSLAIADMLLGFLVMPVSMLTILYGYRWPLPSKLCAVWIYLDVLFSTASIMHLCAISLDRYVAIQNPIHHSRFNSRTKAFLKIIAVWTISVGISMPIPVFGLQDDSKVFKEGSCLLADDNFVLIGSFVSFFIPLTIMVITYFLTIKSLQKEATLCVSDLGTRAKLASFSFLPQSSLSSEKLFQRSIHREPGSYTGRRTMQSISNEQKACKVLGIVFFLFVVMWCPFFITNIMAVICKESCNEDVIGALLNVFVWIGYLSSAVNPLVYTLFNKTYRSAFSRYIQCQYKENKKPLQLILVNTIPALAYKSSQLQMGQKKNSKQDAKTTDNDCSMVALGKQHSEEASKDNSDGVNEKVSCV
# Chain of human recombinant serotonin (5-Hydroxytryptamine) 5-HT7 receptor (P34969 whole entry): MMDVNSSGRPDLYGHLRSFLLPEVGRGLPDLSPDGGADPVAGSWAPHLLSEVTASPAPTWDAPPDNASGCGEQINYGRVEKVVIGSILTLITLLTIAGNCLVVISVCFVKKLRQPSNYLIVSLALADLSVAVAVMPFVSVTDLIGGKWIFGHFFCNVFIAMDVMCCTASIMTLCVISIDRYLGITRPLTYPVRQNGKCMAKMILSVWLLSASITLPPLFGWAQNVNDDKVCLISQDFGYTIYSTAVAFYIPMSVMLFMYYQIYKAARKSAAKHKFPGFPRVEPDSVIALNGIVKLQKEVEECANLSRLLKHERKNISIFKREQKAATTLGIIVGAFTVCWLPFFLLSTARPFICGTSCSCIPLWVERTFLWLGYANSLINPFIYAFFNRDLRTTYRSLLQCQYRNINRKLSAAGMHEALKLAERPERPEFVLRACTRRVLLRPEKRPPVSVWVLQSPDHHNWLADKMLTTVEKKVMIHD
smiles,measurement,setting,value
"C/C(=C\n1c2c(c3cc(C)ccc31)CN(C)CC2)c1ccncc1 [Compound 88, (E)-2,3,4,5-tetrahydro-2,8-dimethyl-5-(2-(pyridin-4-yl)prop-1-enyl)-1H-pyrido[4,3-b]indole]",inhibition at 1 µM,[1],78%
same,"Inhibition of ligand binding, Serotonin 5-HT2A (percent inhibition of specific binding)","[2]; compound at 0.1 μM, 0.1 µM",95%
same,"Inhibition of ligand binding, Serotonin 5-HT2A (percent inhibition of specific binding)","[2]; compound at 1 μM, 1 µM",101%
same,inhibition at 0.1 µM,[2],87%
same,inhibition at 1 µM,[2],98%
same,inhibition at 1 µM,[3],65%
same,inhibition at 0.1 µM,[4],82%
same,"Inhibition of ligand binding, Serotonin 5-HT6 (percent inhibition of specific binding)","[4]; compound at 1 μM, 1 µM",103%
same,inhibition at 1 µM,[4]; compound at 1 μM,102%
same,inhibition at 1 µM,[5],30%
same,"Inhibition of ligand binding, Serotonin 5-HT7 (percent inhibition of specific binding)","[6]; compound at 0.1 μM, 0.1 µM",75% and 97%
same,inhibition at 1 µM,[6],93%
"C/C(=C\n1c2c(c3cc(Cl)ccc31)CN(C)CC2)c1ccncc1 [Compound 90, (E)-8-chloro-2,3,4,5-tetrahydro-2-methyl-5-(2-(pyridin-4-yl)prop-1-enyl)-1H-pyrido[4,3-b]indole]",inhibition at 1 µM,[1],93%
same,inhibition at 0.1 µM,[2],97%
same,inhibition at 1 µM,[2],100%
same,inhibition at 1 µM,[3],95%
same,inhibition at 0.1 µM,[4],102%
same,inhibition at 1 µM,[4]; compound at 1 μM,103%
same,inhibition at 1 µM,[5],60%
same,inhibition at 0.1 µM,[6]; compound at 0.1 μM,82%
"C/C(=C\n1c2c(c3cc(Cl)ccc31)CN(C)CC2)c1ccc(Cl)cc1 [Compound 100, (E)-8-chloro-5-(2-(4-chlorophenyl)prop-1-enyl)-2,3,4,5-tetrahydro-2-methyl-1H-pyrido[4,3-b]indole]",inhibition at 1 µM,[1],87%
same,inhibition at 0.1 µM,[2],97%
same,inhibition at 1 µM,[2],101%
same,inhibition at 1 µM,[3],101%
same,inhibition at 0.1 µM,[4],62%
same,inhibition at 1 µM,[4]; compound at 1 μM,95%
same,inhibition at 1 µM,[5],100%
same,inhibition at 1 µM,[6],99%
"CN1CCc2c(c3cc(Cl)ccc3n2/C=C(/c2ccc(F)cc2)C2CC2)C1 [Compound 110, (E)-8-chloro-5-(2-cyclopropyl-2-(4-fluorophenyl)vinyl)-2,3,4,5-tetrahydro-2-methyl-1H-pyrido[4,3-b]indole]",inhibition at 1 µM,[1],86%
same,inhibition at 0.1 µM,[2],102%
same,inhibition at 1 µM,[2],98%
same,inhibition at 1 µM,[3],99%
same,inhibition at 0.1 µM,[4],102%
same,inhibition at 1 µM,[4]; compound at 1 μM,104%
same,inhibition at 1 µM,[5],102%
same,inhibition at 1 µM,[6],92%
"C=C(Cn1c2c(c3cc(Cl)ccc31)CN(C)CC2)c1ccc(F)cc1 [Compound 128, 8-chloro-5-(2-(4-fluorophenyl)allyl)-2,3,4,5-tetrahydro-2-methyl-1H-pyrido[4,3-b]indole]",inhibition at 1 µM,[1],91%
same,inhibition at 0.1 µM,[2],99%
same,inhibition at 1 µM,[2],100%
same,inhibition at 1 µM,[3],99%
same,inhibition at 0.1 µM,[4],94%
same,inhibition at 1 µM,[4]; compound at 1 μM,101%
same,inhibition at 1 µM,[5],100%
same,inhibition at 1 µM,[6],98%
"C=C(Cn1c2c(c3cc(C)ccc31)CN(C)CC2)c1ccc(F)cc1 [Compound 132, 5-(2-(4-fluorophenyl)allyl)-2,3,4,5-tetrahydro-2,8-dimethyl-1H-pyrido[4,3-b]indole]",inhibition at 1 µM,[1],93%
same,inhibition at 1 µM,[2],100%
same,inhibition at 1 µM,[3],97%
same,inhibition at 1 µM,[4]; compound at 1 μM,100%
same,inhibition at 1 µM,[5],96%
same,inhibition at 1 µM,[6],103%
"Cc1ccc2c(c1)c1c(n2CC(O)(c2ccc(F)cc2)C2CCCCC2)CCN(C)C1 (centres unmarked) [Compound 171, 1-cyclohexyl-2-(2,8-dimethyl-3,4-dihydro-1H-pyrido[4,3-b]indol-5(2H)-yl)-1-(4-fluorophenyl)ethanol]",inhibition at 1 µM,[1],49%
same,inhibition at 0.1 µM,[2],60%
same,inhibition at 1 µM,[2],97%
same,inhibition at 1 µM,[3],83%
same,inhibition at 0.1 µM,[4],35%
same,inhibition at 1 µM,[4]; compound at 1 μM,93%
same,inhibition at 1 µM,[5],85%
same,inhibition at 1 µM,[6],42%
"Cc1ccc2c(c1)c1c(n2CC(O)c2ccc(F)cc2)CCN(C)C1 (centres unmarked) [Compound 172, 2-(2,8-dimethyl-3,4-dihydro-1H-pyrido[4,3-b]indol-5(2H)-yl)-1-(4-fluorophenyl)ethanol]",inhibition at 1 µM,[1],88%
same,inhibition at 1 µM,[2],91%
same,inhibition at 1 µM,[3],98%
same,inhibition at 1 µM,[4]; compound at 1 μM,93%
same,inhibition at 1 µM,[5],65%
same,inhibition at 1 µM,[6],100%
"COc1ccc(C(C)(O)Cn2c3c(c4cc(C)ccc42)CN(C)CC3)cc1 (centres unmarked) [Compound 174, 1-(2,8-dimethyl-3,4-dihydro-1H-pyrido[4,3-b]indol-5(2H)-yl)-2-(4-methoxyphenyl)propan-2-ol]",inhibition at 1 µM,[1],57%
same,"Inhibition of ligand binding, Serotonin 5-HT2A (percent inhibition of specific binding)","[2]; compound at 1 μM, 1 µM",100%
same,inhibition at 0.1 µM,[2],96%
same,inhibition at 1 µM,[2],97%
same,inhibition at 1 µM,[3],93%
same,inhibition at 0.1 µM,[4],40%
same,inhibition at 1 µM,[4]; compound at 1 μM,82%
same,inhibition at 1 µM,[5],80%
same,inhibition at 0.1 µM,[6]; compound at 0.1 μM,68%
same,inhibition at 1 µM,[6],95%
"CCC(O)(Cn1c2c(c3cc(C)ccc31)CN(C)CC2)c1ccc(F)cc1 (centres unmarked) [Compound 175, 1-(2,8-dimethyl-3,4-dihydro-1H-pyrido[4,3-b]indol-5(2H)-yl)-2-(4-fluorophenyl)butan-2-ol]",inhibition at 1 µM,[1],75%
same,inhibition at 1 µM,[2],102%
same,inhibition at 1 µM,[3],94%
same,inhibition at 1 µM,[4]; compound at 1 μM,100%
same,inhibition at 1 µM,[5],91%
same,inhibition at 1 µM,[6],79%
"CN1CCc2c(c3cc(Cl)ccc3n2CC(O)(c2ccc(F)cc2)C2CCC2)C1 (centres unmarked) [Compound 177, 2-(8-chloro-2-methyl-3,4-dihydro-1H-pyrido[4,3-b]indol-5(2H)-yl)-1-cyclobutyl-1-(4-fluorophenyl)ethanol]",inhibition at 1 µM,[1],70%
same,inhibition at 1 µM,[2],97%
same,inhibition at 1 µM,[3],96%
same,inhibition at 1 µM,[4]; compound at 1 μM,100%
same,inhibition at 1 µM,[5],101%
same,inhibition at 1 µM,[6],42%
"CCCCC(O)(Cn1c2c(c3cc(Cl)ccc31)CN(C)CC2)c1ccc(F)cc1 (centres unmarked) [Compound 178, 1-(8-chloro-2-methyl-3,4-dihydro-1H-pyrido[4,3-b]indol-5(2H)-yl)-2-(4-fluorophenyl)hexan-2-ol]",inhibition at 1 µM,[1],46%
same,inhibition at 1 µM,[2],98%
same,inhibition at 1 µM,[3],88%
same,inhibition at 1 µM,[4]; compound at 1 μM,95%
same,inhibition at 1 µM,[5],89%
same,inhibition at 1 µM,[6],48%
